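Exposure lasted 48 hours, with cells grown in 96-well plates and compounds tested at five concentrations. At the GI50, growth is halved. TGI is the concentration that stops growth completely.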
Assays:
Assay in all cases: growth of human tumour cells (NCI), 48 h
786-0 renal = system: 786-0 renal
A498 renal = system: A498 renal
A549 NSCLC = system: A549 NSCLC
ACHN renal = system: ACHN renal
BT-549 breast = system: BT-549 breast
CAKI-1 renal = system: CAKI-1 renal
CCRF-CEM leukemia = system: CCRF-CEM leukemia
COLO 205 colon = system: COLO 205 colon
DU-145 prostate = system: DU-145 prostate
EKVX NSCLC = system: EKVX NSCLC
HCC-2998 colon = system: HCC-2998 colon
HCT-116 colon = system: HCT-116 colon
HCT-15 colon = system: HCT-15 colon
HL-60(TB) leukemia = system: HL-60(TB) leukemia
HOP-62 NSCLC = system: HOP-62 NSCLC
HOP-92 NSCLC = system: HOP-92 NSCLC
HS 578T breast = system: HS 578T breast
HT29 colon = system: HT29 colon
IGROV1 ovarian = system: IGROV1 ovarian
K-562 leukemia = system: K-562 leukemia
KM12 colon = system: KM12 colon
LOX IMVI melanoma = system: LOX IMVI melanoma
M14 melanoma = system: M14 melanoma
MALME-3M melanoma = system: MALME-3M melanoma
MCF7 breast = system: MCF7 breast
MDA-MB-231 breast = system: MDA-MB-231 breast
MDA-MB-435 = system: MDA-MB-435
MOLT-4 leukemia = system: MOLT-4 leukemia
NCI-H226 lung = system: NCI-H226 lung
NCI-H23 lung = system: NCI-H23 lung
NCI-H460 lung = system: NCI-H460 lung
NCI-H522 lung = system: NCI-H522 lung
NCI/ADR-RES ovarian = system: NCI/ADR-RES ovarian
OVCAR-3 ovarian = system: OVCAR-3 ovarian
OVCAR-4 ovarian = system: OVCAR-4 ovarian
OVCAR-5 ovarian = system: OVCAR-5 ovarian
OVCAR-8 ovarian = system: OVCAR-8 ovarian
PC-3 prostate = system: PC-3 prostate
RPMI-8226 leukemia = system: RPMI-8226 leukemia
RXF 393 renal = system: RXF 393 renal
SF-268 CNS = system: SF-268 CNS
SF-295 CNS = system: SF-295 CNS
SF-539 CNS = system: SF-539 CNS
SK-MEL-2 melanoma = system: SK-MEL-2 melanoma
SK-MEL-28 melanoma = system: SK-MEL-28 melanoma
SK-MEL-5 melanoma = system: SK-MEL-5 melanoma
SK-OV-3 ovarian = system: SK-OV-3 ovarian
SN12C renal = system: SN12C renal
SNB-19 CNS = system: SNB-19 CNS
SNB-75 CNS = system: SNB-75 CNS
SR leukemia = system: SR leukemia
SW-620 colon = system: SW-620 colon
T-47D breast = system: T-47D breast
TK-10 renal = system: TK-10 renal
U251 CNS = system: U251 CNS
UACC-257 melanoma = system: UACC-257 melanoma
UACC-62 melanoma = system: UACC-62 melanoma
UO-31 renal = system: UO-31 renal

Compound: CNC(=O)c1cc(-c2ccc(F)cc2)cc(-c2ccc(S(=O)(=O)N3CCCC3)cc2)c1N
- GI50 (786-0 renal): 24.4 µM
- TGI (786-0 renal): > 25 µM
- GI50 (A498 renal): 5.25 µM
- TGI (A498 renal): > 25 µM
- GI50 (A549 NSCLC): 11.9 µM
- TGI (A549 NSCLC): > 25 µM
- GI50 (ACHN renal): 21.5 µM
- TGI (ACHN renal): > 25 µM
- GI50 (BT-549 breast): > 21.2 µM
- TGI (BT-549 breast): > 25 µM
- GI50 (CAKI-1 renal): 12.6 µM
- TGI (CAKI-1 renal): > 25 µM
- GI50 (CCRF-CEM leukemia): > 20.7 µM
- TGI (CCRF-CEM leukemia): > 25 µM
- GI50 (COLO 205 colon): 23.5 µM
- TGI (COLO 205 colon): > 25 µM
- GI50 (DU-145 prostate): > 25 µM
- TGI (DU-145 prostate): > 25 µM
- GI50 (EKVX NSCLC): 10.2 µM
- TGI (EKVX NSCLC): > 25 µM
- GI50 (HCC-2998 colon): > 25 µM
- TGI (HCC-2998 colon): > 25 µM
- GI50 (HCT-116 colon): 11.6 µM
- TGI (HCT-116 colon): > 25 µM
- GI50 (HCT-15 colon): 9.68 µM
- TGI (HCT-15 colon): > 25 µM
- GI50 (HL-60(TB) leukemia): 7.41 µM
- TGI (HL-60(TB) leukemia): > 25 µM
- GI50 (HOP-62 NSCLC): > 25 µM
- TGI (HOP-62 NSCLC): > 25 µM
- GI50 (HOP-92 NSCLC): 4.9 µM
- TGI (HOP-92 NSCLC): > 25 µM
- GI50 (HS 578T breast): > 11.1 µM
- TGI (HS 578T breast): > 25 µM
- GI50 (HT29 colon): 15.7 µM
- TGI (HT29 colon): > 25 µM
- GI50 (IGROV1 ovarian): > 25 µM
- TGI (IGROV1 ovarian): > 25 µM
- GI50 (K-562 leukemia): 20.4 µM
- TGI (K-562 leukemia): > 25 µM
- GI50 (KM12 colon): 16.6 µM
- TGI (KM12 colon): > 25 µM
- GI50 (LOX IMVI melanoma): > 25 µM
- TGI (LOX IMVI melanoma): > 25 µM
- GI50 (M14 melanoma): > 25 µM
- TGI (M14 melanoma): > 25 µM
- GI50 (MALME-3M melanoma): > 25 µM
- TGI (MALME-3M melanoma): > 25 µM
- GI50 (MCF7 breast): 8.79 µM
- TGI (MCF7 breast): > 25 µM
- GI50 (MDA-MB-231 breast): > 20.8 µM
- TGI (MDA-MB-231 breast): > 25 µM
- GI50 (MDA-MB-435): > 25 µM
- TGI (MDA-MB-435): > 25 µM
- GI50 (MOLT-4 leukemia): 15.5 µM
- TGI (MOLT-4 leukemia): > 25 µM
- GI50 (NCI-H226 lung): > 25 µM
- TGI (NCI-H226 lung): > 25 µM
- GI50 (NCI-H23 lung): > 25 µM
- TGI (NCI-H23 lung): > 25 µM
- GI50 (NCI-H460 lung): 15.1 µM
- TGI (NCI-H460 lung): > 25 µM
- GI50 (NCI-H522 lung): 22.3 µM
- TGI (NCI-H522 lung): > 25 µM
- GI50 (NCI/ADR-RES ovarian): 16.2 µM
- TGI (NCI/ADR-RES ovarian): > 25 µM
- GI50 (OVCAR-3 ovarian): 18.2 µM
- TGI (OVCAR-3 ovarian): > 25 µM
- GI50 (OVCAR-4 ovarian): 16.1 µM
- TGI (OVCAR-4 ovarian): > 25 µM
- GI50 (OVCAR-5 ovarian): > 25 µM
- TGI (OVCAR-5 ovarian): > 25 µM
- GI50 (OVCAR-8 ovarian): > 25 µM
- TGI (OVCAR-8 ovarian): > 25 µM
- GI50 (PC-3 prostate): 8.54 µM
- TGI (PC-3 prostate): > 25 µM
- GI50 (RPMI-8226 leukemia): 10.1 µM
- TGI (RPMI-8226 leukemia): > 25 µM
- GI50 (RXF 393 renal): 14.7 µM
- TGI (RXF 393 renal): > 25 µM
- GI50 (SF-268 CNS): > 25 µM
- TGI (SF-268 CNS): > 25 µM
- GI50 (SF-295 CNS): 10.6 µM
- TGI (SF-295 CNS): > 25 µM
- GI50 (SF-539 CNS): > 25 µM
- TGI (SF-539 CNS): > 25 µM
- GI50 (SK-MEL-2 melanoma): > 25 µM
- TGI (SK-MEL-2 melanoma): > 25 µM
- GI50 (SK-MEL-28 melanoma): > 25 µM
- TGI (SK-MEL-28 melanoma): > 25 µM
- GI50 (SK-MEL-5 melanoma): 12.9 µM
- TGI (SK-MEL-5 melanoma): > 25 µM
- GI50 (SK-OV-3 ovarian): > 25 µM
- TGI (SK-OV-3 ovarian): > 25 µM
- GI50 (SN12C renal): > 23.8 µM
- TGI (SN12C renal): > 25 µM
- GI50 (SNB-19 CNS): > 25 µM
- TGI (SNB-19 CNS): > 25 µM
- GI50 (SNB-75 CNS): 12.7 µM
- TGI (SNB-75 CNS): > 25 µM
- GI50 (SR leukemia): > 25 µM
- TGI (SR leukemia): > 25 µM
- GI50 (SW-620 colon): 18.6 µM
- TGI (SW-620 colon): > 25 µM
- GI50 (T-47D breast): 10.5 µM
- TGI (T-47D breast): > 25 µM
- GI50 (TK-10 renal): > 25 µM
- TGI (TK-10 renal): > 25 µM
- GI50 (U251 CNS): 15.1 µM
- TGI (U251 CNS): > 25 µM
- GI50 (UACC-257 melanoma): > 22.6 µM
- TGI (UACC-257 melanoma): > 25 µM
- GI50 (UACC-62 melanoma): > 23.1 µM
- TGI (UACC-62 melanoma): > 25 µM
- GI50 (UO-31 renal): 11.3 µM
- TGI (UO-31 renal): > 25 µM

From PubChem BioAssay (NCI)
